Patent US11780850B2, “Purification of rapamycin derivatives using temperature induced phase separation” (Biosensors International Group, Ltd., priority 2013, dated 2023)

Experiments:
[1] = Oxidation study, exposure to 30% H2O2; format: physicochemical; details: 30% H2O2 for 3 hours; for weight loss after oxidative degradation (relative to a control sample): assay measurement
Text: It is therefore apparent that amorphous BA9 is more susceptible to oxidative degradation.

[2] = Photolysis study per ICH Q1B (photostability); details: for Major Degradants, % (RT 4.2 min): HPLC RT 4.2 min; for Major Degradants, % (RT 4.5 min): HPLC RT 4.5 min; for Major Degradants, % (RT 4.9 min): HPLC RT 4.9 min; for Major Degradants, % (RT 6.2 min): HPLC RT 6.2 min; for Major Degradants, % (RT 7.9 min): HPLC RT 7.9 min; for Major Degradants, % (RT 10.4 min): HPLC RT 10.4 min; for Major Degradants, % (RT 10.7 min): HPLC RT 10.7 min; for Major Degradants, % (RT 11.0 min): HPLC RT 11.0 min
Protocol: Photolysis studies were performed on amorphous and crystalline BA9 (i.e, Form I).

[3] = Dark Control, storage at standard laboratory temperature without light; details: for Major Degradants, % (RT 4.5 min): HPLC RT 4.5 min; for Major Degradants, % (RT 4.9 min): HPLC RT 4.9 min; for Major Degradants, % (RT 6.2 min): HPLC RT 6.2 min; for Major Degradants, % (RT 10.4 min): HPLC RT 10.4 min; for Major Degradants, % (RT 10.7 min): HPLC RT 10.7 min; for Major Degradants, % (RT 11.0 min): HPLC RT 11.0 min; for Purity Assay, %: standard laboratory temperature, no light, duration of the study
[4] = Dynamic vapor sorption (DVS) experiment; format: physicochemical
Protocol: Batch profiling and polymorph screening methods. BA9 Lots 2A and 2B were purified using precipitation from n-hexanes as described above. After the purification process, Lot 2A (82.9 g) was dissolved in methanol (190 g) and precipitated by adding the methanol solution to water. The combined methanolic solution was transferred to an addition funnel and then slowly charged within 1 hour and 15 minutes into vigorously stirred water for injection (2.18 kg) in a reactor at a temperature range of 0-5° C. After completion of the addition of the methanolic solution of BA9, the resulting white suspension was stirred for an additional 15 minutes at the same temperature range. The precipitated BA9 was isolated in 84.8% yield (purity was 96.3% as determined by HPLC). The suspension was then filtered, and the isolated white solid was washed on the filter. Lot 2A was characterized by XRPD and DSC and Lot 2B was characterized by XRPD, DSC, optical microscopy, and infrared (IR) spectroscopy.
A DVS experiment was run on Lot 2B. The increase in mass of the sample was ˜0.5% at 90% RH.

[5] = Photolysis - VIS/UV, minimum 1.2 million lux hours and not less than 200 W·hours/m^2 per ICH Q1B

weight loss after oxidative degradation (relative to a control sample) [1] [%]	Major Degradants, % (RT 4.2 min) ([2]; Photolysis - VIS/UV) [%]	Major Degradants, % (RT 4.5 min) ([2]; Photolysis - VIS/UV) [%]	Major Degradants, % (RT 4.9 min) ([2]; Photolysis - VIS/UV) [%]	Major Degradants, % (RT 6.2 min) ([2]; Photolysis - VIS/UV) [%]	Major Degradants, % (RT 7.9 min) ([2]; Photolysis - VIS/UV) [%]	Major Degradants, % (RT 10.4 min) ([2]; Photolysis - VIS/UV) [%]	Major Degradants, % (RT 10.7 min) ([2]; Photolysis - VIS/UV) [%]	Major Degradants, % (RT 11.0 min) ([2]; Photolysis - VIS/UV) [%]	Purity Assay, % [2, 5] [%]	Purity Assay, % ([2]; T = 0 Control) [%]	Major Degradants, % (RT 4.5 min) [3] [%]	Major Degradants, % (RT 4.9 min) [3] [%]	Major Degradants, % (RT 6.2 min) [3] [%]	Major Degradants, % (RT 10.4 min) [3] [%]	Major Degradants, % (RT 10.7 min) [3] [%]	Major Degradants, % (RT 11.0 min) [3] [%]	Purity Assay, % [3] [%]	SMILES	further results
6.5	1.30	7.40	1.20	2.50	2.20	1.70	0.94	2.60	16.3	98.0	0.72	0.31	0.20	0.44	1.40	0.39	88.2	CCOCCOC1CCC(CC(C)C2CC(=O)C(C)C=C(C)C(O)C(OC)C(=O)C(C)CC(C)C=CC=CC=C(C)C(OC)CC3CCC(C)C(O)(O3)C(=O)C(=O)N3CCCCC3C(=O)O2)CC1OC (centres unmarked) [Amorphous BA9, 40-O-(2-ethoxyethyl) rapamycin]	Purity Assay, % ([2]; Photolysis - VIS/UV, minimum 1.2 million lux hours and not less than 200 W·hours/m^2 per ICH Q1B, listed as amorphous BA9): 16.3%; Purity Assay, % ([3]; listed as amorphous BA9): 88.2%
3.4	0.76	2.00	2.60	0.94	0.07	0.15	0.69	0.51	70.2	97.7	0.08	0.41	0.09	0.03	0.06	0.67	98.0	CCOCCOC1CCC(CC(C)C2CC(=O)C(C)C=C(C)C(O)C(OC)C(=O)C(C)CC(C)C=CC=CC=C(C)C(OC)CC3CCC(C)C(O)(O3)C(=O)C(=O)N3CCCCC3C(=O)O2)CC1OC (centres unmarked) [Crystalline BA9, 40-O-(2-ethoxyethyl) rapamycin]	levels of major degradants after oxidative degradation (vs amorphous BA9) ([1]; HPLC): lower levels of major degradants overall; solid form of post DVS sample by XRPD ([4]; after DVS experiment): confirmed as Form I; increase in mass of the sample ([4]; at 90% RH): ~0.5%; Purity Assay, % ([2]; Photolysis - VIS/UV, minimum 1.2 million lux hours and not less than 200 W·hours/m^2 per ICH Q1B, listed as crystalline BA9): 70.2%; Major Degradants, % (RT 4.2 min) ([3]; HPLC RT 4.2 min): 0.01%; Purity Assay, % ([3]; listed as crystalline BA9): 98.0%
